Some results are limits rather than exact numbers.

For this test, the system named is HL-60 cells differentiated into neutrophil cells. In words: ROS production induced by PMA in HL-60 cells differentiated into neutrophil cells. The format is cell-based. Conditions: Homo sapiens, 0.5 h; differentiated HL-60 cells, compounds 0.5 uM (0.5 mM in the source) for 30 minutes, 200 nM PMA, L-012 luminescence. The text has this: In order to confirm the effect of the compounds of Synthetic examples on ROS production from fibroblasts and specific substrate cells, ROS production was induced by stimulation of PMA (phorbol 12-myristate 13-acetate), TGF-β1, palmitate or high concentration-glucose, or the like, in HL-60 cells differentiated into neutrophil cells by DMSO treatment, NHLF (normal human lung fibroblast, Lonza), LX-2 (human hepatic stellate cells, Sigma), ARPE19 (human retinal pigment epithelial cell, ATCC), and KEL-FIB (Keloid fibroblast, ATCC) cells, and under this condition, the inhibitory effect of ROS production of the compounds of Synthetic Examples was observed.
HL-60 cells (human leukemia cells, ATCC) were suspended in a medium containing 1.25% DMSO (RPMI+10% FBS) and cultured under the condition of 5% CO2, 37° C. for 6 days, thereby inducing differentiation into neutrophil cells. […] Then, to each well comprising the cells and drug, 200 nM PMA was treated to induce ROS production, and such ROS production was measured by observing the luminescence level of each well using 100 μM L-012.
As for `Oc1c2c(nn1-c1ccccn1)CCC(N(Cc1ccccc1)C1CC1)C2` (stereo not drawn) [Compound 2, 5-(Benzylcyclopropylamino)-2-(pyridin-2-yl)-4,5,6,7-tetrahydro-2H-indazol-3-ol], the inhibition (usually the relative decrease from the control value, in per cent) at 0.5 µM is > 70%. On to `CN(Cc1ccc(C#N)cc1)C1CCc2nn(-c3ccccn3)c(O)c2C1` (stereo not drawn) [Compound 3, 4-{[(3-Hydroxy-2-(pyridin-2-yl)-4,5,6,7-tetrahydro-2H-indazol-5-yl)methylamino]methyl}benzonitrile], for which the inhibition at 0.5 µM is > 70%. Consider `CN(Cc1ccc(F)cc1)C1CCc2nn(-c3ccccn3)c(O)c2C1` (stereo not drawn) [Compound 4, 5-[(4-Fluorobenzyl)methylamino]-2-(pyridin-2-yl)-4,5,6,7-tetrahydro-2H-indazol-3-ol], for which the inhibition at 0.5 µM was > 70%. For `CN(Cc1ccccc1Cl)C1CCc2nn(-c3ccccn3)c(O)c2C1` (stereo not drawn) [Compound 6, 5-[(2-Chlorobenzyl)methylamino]-2-(pyridin-2-yl)-4,5,6,7-tetrahydro-2H-indazol-3-ol], the inhibition at 0.5 µM was > 70%.

On to `CN(Cc1cccc(Cl)c1)C1CCc2nn(-c3ccccn3)c(O)c2C1` (stereo not drawn) [Compound 7, 5-[(3-Chlorobenzyl)methylamino]-2-(pyridin-2-yl)-4,5,6,7-tetrahydro-2H-indazol-3-ol], for which the inhibition at 0.5 µM was > 70%.

Regarding `CN(Cc1ccc(C(F)(F)F)cc1)C1CCc2nn(-c3ccccn3)c(O)c2C1` (stereo not drawn) [Compound 8, 5-[Methyl-(4-trifluoromethylbenzyl)amino]-2-pyridin-2-yl-4,5,6,7-tetrahydro-2H-indazol-3-ol], the inhibition at 0.5 µM was < 30%. The value for `Cc1cccc(CN(C)C2CCc3nn(-c4ccccn4)c(O)c3C2)c1` (stereo not drawn) [Compound 9, 5-[Methyl-(3-methylbenzyl)amino]-2-(pyridin-2-yl)-4,5,6,7-tetrahydro-2H-indazol-3-ol] was 50 to 70%.

For the compound `CN(Cc1cccc(C(F)(F)F)c1)C1CCc2nn(-c3ccccn3)c(O)c2C1` (stereo not drawn) [Compound 10, 5-[Methyl-(3-trifluoromethylbenzyl)-amino]-2-pyridin-2-yl-4,5,6,7-tetrahydro-2H-indazol-3-ol], the inhibition at 0.5 µM lay within 30 to 50%. The value for `CN(Cc1ccccc1C(F)(F)F)C1CCc2nn(-c3ccccn3)c(O)c2C1` (stereo not drawn) [Compound 11, 5-[Methyl-(2-trifluoromethylbenzyl)-amino]-2-pyridin-2-yl-4,5,6,7-tetrahydro-2H-indazol-3-ol] was < 30%.

As to `Oc1c2c(nn1-c1ccccn1)CCC(N1CCOCC1)C2` (stereo not drawn) [Compound 15, 5-Morpholino-4-yl-2-(pyridin-2-yl)-4,5,6,7-tetrahydro-2H-indazol-3-ol], the inhibition at 0.5 µM was > 70%. Next, `Oc1c2c(nn1-c1ccccn1)CCC(N1CCc3ccccc3C1)C2` (stereo not drawn) [Compound 18, 5-(3,4-Dihydro-1H-isoquinolin-2-yl)-2-(pyridin-2-yl)-4,5,6,7-tetrahydro-2H-indazol-3-ol]: > 70%; `CN(Cc1ccc(Cl)cc1)C1CCc2nn(-c3ccccn3)c(O)c2C1` (stereo not drawn) [Compound 19, 5-[(4-Chlorobenzyl)methylamino]-2-(pyridin-2-yl)-4,5,6,7-tetrahydro-2H-indazol-3-ol]: > 70%. Turning to `CCN(Cc1ccccc1)C1CCc2nn(-c3ccccn3)c(O)c2C1` (stereo not drawn) [Compound 20, 5-(Benzylethylamino)-2-(pyridin-2-yl)-4,5,6,7-tetrahydro-2H-indazol-3-ol], the inhibition at 0.5 µM lay in the range of 30 to 50%.

Regarding `CCCN(Cc1ccccc1)C1CCc2nn(-c3ccccn3)c(O)c2C1` (stereo not drawn) [Compound 21, 5-(Benzylpropylamino)-2-(pyridin-2-yl)-4,5,6,7-tetrahydro-2H-indazol-3-ol], the inhibition at 0.5 µM was in the range of 30 to 50%. As for `CCCCN(Cc1ccccc1)C1CCc2nn(-c3ccccn3)c(O)c2C1` (stereo not drawn) [Compound 22, 5-(Benzylbutylamino)-2-(pyridin-2-yl)-4,5,6,7-tetrahydro-2H-indazol-3-ol], the inhibition at 0.5 µM is < 30%. Compound `Cc1ccc(CN(C)C2CCc3nn(-c4ccccn4)c(O)c3C2)cc1` (stereo not drawn) [Compound 24, 5-[Methyl-(4-methylbenzyl)amino]-2-(pyridin-2-yl)-4,5,6,7-tetrahydro-2H-indazol-3-ol] registered an inhibition at 0.5 µM of 30 to 50%. The value for `CN(Cc1cccc(C#N)c1)C1CCc2nn(-c3ccccn3)c(O)c2C1` (stereo not drawn) [Compound 25, 3-{[(3-Hydroxy-2-(pyridin-2-yl)-4,5,6,7-tetrahydro-2H-indazol-5-yl)methylamino]methyl}benzonitrile] was 30 to 50%; that for `COc1ccccc1CN(C)C1CCc2nn(-c3ccccn3)c(O)c2C1` (stereo not drawn) [Compound 26, 5-[(2-Methoxybenzyl)-methylamino]-2-(pyridin-2-yl)-4,5,6,7-tetrahydro-2H-indazol-3-ol] was < 30%; that for `CN(Cc1cccc(F)c1)C1CCc2nn(-c3ccccn3)c(O)c2C1` (stereo not drawn) [Compound 27, 5-[(3-Fluorobenzyl)methylamino]-2-(pyridin-2-yl)-4,5,6,7-tetrahydro-2H-indazol-3-ol] was 30 to 50%. The value for `COc1ccc(CN(C)C2CCc3nn(-c4ccccn4)c(O)c3C2)cc1` (stereo not drawn) [Compound 28, 5-[(4-Methoxybenzyl)methylamino]-2-(pyridin-2-yl)-4,5,6,7-tetrahydro-2H-indazol-3-ol] was 50 to 70%. Compound `Cc1ccccc1CN(C)C1CCc2nn(-c3ccccn3)c(O)c2C1` (stereo not drawn) [Compound 29, 5-[Methyl-(2-methylbenzyl)amino]-2-(pyridin-2-yl)-4,5,6,7-tetrahydro-2H-indazol-3-ol] had an inhibition at 0.5 µM of 30 to 50%. `CN1CCN(c2cc(CN(C)C3CCc4nn(-c5ccccn5)c(O)c4C3)ncn2)CC1` (stereo not drawn) [Compound 34, 5-{methyl-[6-(4-methyl-piperazin-1-yl)-pyrimidin-4-ylmethyl]-amino}-2-pyridin-2-yl-4,5,6,7-tetrahydro-2H-indazol-3-ol] had an inhibition at 0.5 µM of 30 to 50%. In turn, `CN1CCN(c2cccc3nc(CN(C)C4CCc5nn(-c6ccccn6)c(O)c5C4)cn23)CC1` (stereo not drawn) [Compound 37, 5-{Methyl[5-(4-methylpiperazin-1-yl)imidazo[1,2-a]pyridin-2-yl]methylamino}-2-(pyridin-2-yl)-4,5,6,7-tetrahydro-2H-indazol-3-ol] had an inhibition at 0.5 µM of 30 to 50%.

Take `CN(C)c1ccc(CN(C)C2CCc3nn(-c4ccccn4)c(O)c3C2)cc1` (stereo not drawn) [Compound 70, 5-[(4-Dimethylamino)benzylmethylamino]-2-(pyridin-2-yl)-4,5,6,7-tetrahydro-2H-indazol-3-ol]: the inhibition at 0.5 µM was in the range of 30 to 50%. The value for `CN(C)c1ccccc1CN(C)C1CCc2nn(-c3ccccn3)c(O)c2C1` (stereo not drawn) [Compound 71, 5-[(2-Dimethylamino)benzylmethylamino]-2-(pyridin-2-yl)-4,5,6,7-tetrahydro-2H-indazol-3-ol] was 50 to 70%; that for `CN1CCN(C2CCc3nn(-c4cccc(Cl)n4)c(O)c3C2)CC1` (stereo not drawn) [Compound 83, 2-(6-Chloropyridin-2-yl)-5-(4-methylpiperazin-1-yl)-4,5,6,7-tetrahydro-2H-indazol-3-ol] was > 70%. In turn, `Cc1cc(C(F)(F)F)cc(-n2nc3c(c2O)CC(N2CCN(C)CC2)CC3)n1` (stereo not drawn) [Compound 84, 2-(6-Methyl-4-(trifluoromethyl)pyridin-2-yl)-5-(4-methylpiperazin-1-yl)-4,5,6,7-tetrahydro-2H-indazol-3-ol] yielded an inhibition at 0.5 µM of 50 to 70%. The compound `CN1CCN(C2CCc3nn(-c4nccc5sccc45)c(O)c3C2)CC1` (stereo not drawn) [Compound 85, 5-(4-Methylpiperazin-1-yl)-2-(thieno[3,2-c]pyridin-4-yl)-4,5,6,7-tetrahydro-2H-indazol-3-ol] showed an inhibition at 0.5 µM of 50 to 70%.

`CN1CCN(C2CCc3nn(-c4ncccc4F)c(O)c3C2)CC1` (stereo not drawn) [Compound 86, 2-(3-Fluoropyridin-2-yl)-5-(4-methylpiperazin-1-yl)-4,5,6,7-tetrahydro-2H-indazol-3-ol]: the inhibition at 0.5 µM was in the range of 30 to 50%. `Oc1c2c(nn1-c1ccccn1)CCC(N1CCN(Cc3ccccn3)CC1)C2` (stereo not drawn) [Compound 87, 2-(Pyridin-2-yl)-5-(4-(pyridin-2-ylmethyl)piperazin-1-yl)-4,5,6,7-tetrahydro-2H-indazol-3-ol] showed an inhibition at 0.5 µM of 50 to 70%. Compound `COc1ccc(CNC2CCc3nn(-c4ccccn4)c(O)c3C2)cc1` (stereo not drawn) [Compound 88, 5-((4-Methoxybenzyl)amino)-2-(pyridin-2-yl)-4,5,6,7-tetrahydro-2H-indazol-3-ol] registered an inhibition at 0.5 µM of 50 to 70%. In the case of `CC#CC(=O)N1CCN(C2CCc3nn(-c4ccccn4)c(O)c3C2)CC1` (stereo not drawn) [Compound 89], the inhibition at 0.5 µM was > 70%. As for `Oc1c2c(nn1-c1ccccn1)CCC(N1CCN(Cc3ccc4ncccc4c3)CC1)C2` (stereo not drawn) [Compound 90, 2-(Pyridin-2-yl)-5-(4-(quinolin-6-ylmethyl)piperazin-1-yl)-4,5,6,7-tetrahydro-2H-indazol-3-ol], the inhibition at 0.5 µM was > 70%. `CCN1CCN(C2CCc3nn(-c4ccccn4)c(O)c3C2)CC1` (stereo not drawn) [Compound 91, 5-(4-Ethylpiperazin-1-yl)-2-(pyridin-2-yl)-4,5,6,7-tetrahydro-2H-indazol-3-ol] had an inhibition at 0.5 µM of 50 to 70%.

`Oc1c2c(nn1-c1ccccn1)CCC(Nc1ccccc1)C2` (stereo not drawn) [Compound 92, 5-(Phenylamino)-2-(pyridin-2-yl)-4,5,6,7-tetrahydro-2H-indazol-3-ol] yielded an inhibition at 0.5 µM of 30 to 50%. Take `Oc1c2c(nn1-c1ccccn1)CCC(NCCc1ccccc1)C2` (stereo not drawn) [Compound 93, 5-(Penethylamino)-2-(pyridin-2-yl)-4,5,6,7-tetrahydro-2H-indazol-3-ol]: the inhibition at 0.5 µM lay within 30 to 50%.

Values taken from patent US11999718B2, “Pyrazole derivatives” (Aptabio Therapeutics Inc., priority 2021, dated 2024).
